Literature values in patent publication US9604977B2, “Bicyclic thiophenylamide compounds” (Hoffmann-La Roche Inc., priority 2012, dated 2017).

Tests used:
[1] = tested on: ApoE KO mice
[2] = tested on: ob/ob mice
[3] = tested on: mice under HF diet

Structure (SMILES): CCc1c(-c2ccccc2)c(-c2ccccc2)nn1-c1ccccc1-c1cccc(OCC(=O)O)c1 [BMS309403]
- atherosclerotic plaques formation [1]: decrease in atherosclerotic plaques formation
- glucose uptake in muscle and adipose ([2]; clamp study in ob/ob mice): increased glucose uptake in muscle and adipose
- hepatic glucose production ([2]; clamp study in ob/ob mice): reduction of hepatic glucose production
- body weight and energy consumption ([2]; ob/ob mice): no change in body weight and energy consumption
- hepatic steatosis ([2]; ob/ob mice): reduction in hepatic steatosis

Structure (SMILES): Cc1noc(-c2c(NC(=O)C3=C(C(=O)O)CCCC3)sc3c2CCCC3)n1 [Compound 3]
- insulin and glucose tolerance [3]: no improvement in insulin and glucose tolerance
- plasma triglyceride and free fatty acid [3]: reduction in plasma triglyceride and free fatty acid
